Data on 21 compounds can be found in patent publication US20230036854A1, “HETEROCYCLIC SPIRO-COMPOUNDS AS AM2 RECEPTOR INHIBITORS” (THE UNIVERSITY OF SHEFFIELD, priority 2018, published 2023).

Each structure is given as a SMILES string.

The target in this assay is T1, AM2 receptor (1321N1 cells transfected with CALCRL+RAMP3) (Homo sapiens, UniProt O60896+Q16602).
T1 construct: host or cells: 1321N1 cells
T1 sequence (Q16602 23-461): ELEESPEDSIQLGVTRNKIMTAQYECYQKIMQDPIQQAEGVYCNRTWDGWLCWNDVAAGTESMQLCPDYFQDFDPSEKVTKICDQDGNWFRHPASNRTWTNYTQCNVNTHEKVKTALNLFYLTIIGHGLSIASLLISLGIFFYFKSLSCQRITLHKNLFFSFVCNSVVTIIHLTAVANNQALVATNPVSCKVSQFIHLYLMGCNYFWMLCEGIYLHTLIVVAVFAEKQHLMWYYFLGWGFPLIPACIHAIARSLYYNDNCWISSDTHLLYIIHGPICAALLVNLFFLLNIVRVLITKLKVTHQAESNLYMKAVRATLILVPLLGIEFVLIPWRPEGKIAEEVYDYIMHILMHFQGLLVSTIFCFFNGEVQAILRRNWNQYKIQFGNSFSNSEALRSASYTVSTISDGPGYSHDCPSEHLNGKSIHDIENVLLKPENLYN
T1 sequence (O60896 24-148): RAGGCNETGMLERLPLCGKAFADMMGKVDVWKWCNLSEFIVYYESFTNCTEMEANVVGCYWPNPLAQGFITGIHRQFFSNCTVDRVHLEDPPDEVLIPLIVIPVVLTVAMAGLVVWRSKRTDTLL
The experiment in a line: AM2 receptor inhibition, LANCE cAMP agonist-antagonist competition assay. In kind it is cell-based. The settings on record: inhibition of AM induced cAMP activation, read-out: AM2 D2 protocol: pIC50 (converted). The procedure, abridged: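 cAMP was quantified by LANCE TR-FRET after an EC50 challenge with adrenomedullin (15 min, room temperature) in CALCRL+RAMP3-transfected 1321N1 cells (2500/well) that had first been exposed to compound for 30 min. Buffer was pH 7.4 HBSS with HEPES and BSA. Forskolin defined 100% stimulation and vehicle 0%.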
Background: TR-FRET usually uses a lanthanide donor and a delayed reading to cut background.
As to `CCC1(C(=O)N(CC(=O)Nc2ccc3c(c2)C[C@@]2(C3)C(=O)Nc3ncccc32)Cc2ccccc2CNC)CCN(C(=O)N2CC(C(F)(F)F)C2)CC1` [Example 112, (R)-4-Ethyl-N-(2-((methylamino)methyl)benzyl)-N-(2-oxo-2-((2′-oxo-1,1′,2′,3-tetrahydrospiro[indene-2,3′-pyrrolo[2,3-b]pyridin]-5-yl)amino)ethyl)-1-(3-(trifluoromethyl)azetidine-1-carbonyl)piperidine-4-carboxamide], the IC50 was 23.4 nM.
The value for `CCC1(C(=O)N(CC(=O)Nc2ccc3c(c2)C[C@@]2(C3)C(=O)Nc3ncccc32)Cc2ccccc2CNC)CCN(C(=O)NCC(F)(F)F)CC1` [Example 113, (R)-4-Ethyl-N4-(2-((methylamino)methyl)benzyl)-N4-(2-oxo-2-((2′-oxo-1,1′,2′,3-tetrahydrospiro[indene-2,3′-pyrrolo[2,3-b]pyridin]-5-yl)amino)ethyl)-N1-(2,2,2-trifluoroethyl)piperidine-1,4-dicarboxamide] was 4.27 nM; that for `CCC1(C(=O)N(CC(=O)Nc2ccc3c(c2)C[C@@]2(C3)C(=O)Nc3ncccc32)Cc2ccccc2CNC)CCN(C(=O)OC(C)C)CC1` [Example 114, (R)-Isopropyl 4-ethyl-4-((2-((methylamino)methyl)benzyl)(2-oxo-2-((2′-oxo-1,1′,2′,3-tetrahydrospiro[indene-2,3′-pyrrolo[2,3-b]pyridin]-5-yl)amino)ethyl)carbamoyl)piperidine-1-carboxylate] was 69.2 nM; that for `CCOC(=O)N1CCC(CC)(C(=O)N(CC(=O)Nc2ccc3c(c2)C[C@@]2(C3)C(=O)Nc3ncccc32)Cc2ccccc2CNC)CC1` [Example 115, (R)-Ethyl 4-ethyl-4-((2-((methylamino)methyl)benzyl)(2-oxo-2-((2′-oxo-1,1′,2′,3-tetrahydrospiro[indene-2,3′-pyrrolo[2,3-b]pyridin]-5-yl)amino)ethyl)carbamoyl)piperidine-1-carboxylate] was 24.5 nM.
The value for `CCC1(C(=O)N(CC(=O)Nc2ccc3c(c2)C[C@@]2(C3)C(=O)Nc3ncccc32)Cc2ccccc2CNC)CCN(C(=O)OC)CC1` [Example 116, (R)-Methyl 4-ethyl-4-((2-((methylamino)methyl)benzyl)(2-oxo-2-((2′-oxo-1,1′,2′,3-tetrahydrospiro[indene-2,3′-pyrrolo[2,3-b]pyridin]-5-yl)amino)ethyl)carbamoyl)piperidine-1-carboxylate] was 20 nM; that for `CCC1(C(=O)N(CC(=O)Nc2ccc3c(c2)C[C@@]2(C3)C(=O)Nc3ncccc32)Cc2ccccc2CNC)CCN(S(=O)(=O)NC)CC1` [Example 117, (R)-4-Ethyl-N-(2-((methylamino)methyl)benzyl)-1-(N-methylsulfamoyl)-N-(2-oxo-2-((2′-oxo-1,1′,2′,3-tetrahydrospiro[indene-2,3′-pyrrolo[2,3-b]pyridin]-5-yl)amino)ethyl)piperidine-4-carboxamide] was 4.57 nM.
With `CCC1(C(=O)N(CC(=O)Nc2ccc3c(c2)C[C@@]2(C3)C(=O)Nc3ncccc32)Cc2ccccc2CNC)CCN(S(=O)(=O)N(C)C)CC1` [Example 118, (R)-1-(N,N-Dimethylsulfamoyl)-4-ethyl-N-(2-((methylamino)methyl)benzyl)-N-(2-oxo-2-((2′-oxo-1,1′,2′,3-tetrahydrospiro[indene-2,3′-pyrrolo[2,3-b]pyridin]-5-yl)amino)ethyl)piperidine-4-carboxamide] the figure was 34.7 nM.
For `CNCc1ccccc1CN(CC(=O)Nc1ccc2c(c1)C[C@@]1(C2)C(=O)Nc2ncccc21)C(=O)C1(CC(F)(F)F)CCN(C(C)=O)CC1` [Example 120, (R)-1-Acetyl-N-(2-((methylamino)methyl)benzyl)-N-(2-oxo-2-((2′-oxo-1,1′,2′,3-tetrahydrospiro[indene-2,3′-pyrrolo[2,3-b]pyridin]-5-yl)amino)ethyl)-4-(2,2,2-trifluoroethyl)piperidine-4-carboxamide], the IC50 is 22.9 nM.
`CNCc1ccccc1CN(CC(=O)Nc1ccc2c(c1)C[C@@]1(C2)C(=O)Nc2ncccc21)C(=O)C1(CC(F)(F)F)CCN(C(=O)N(C)C)CC1` [Example 121, (R)—N1,N1-Dimethyl-N4-(2-((methylamino)methyl)benzyl)-N4-(2-oxo-2-((2′-oxo-1,1′,2′,3-tetrahydrospiro[indene-2,3′-pyrrolo[2,3-b]pyridin]-5-yl)amino)ethyl)-4-(2,2,2-trifluoroethyl)piperidine-1,4-dicarboxamide]: the IC50 is 10.5 nM.
As to `CNCc1ccccc1CN(CC(=O)Nc1ccc2c(c1)C[C@@]1(C2)C(=O)Nc2ncccc21)C(=O)C1(CC2CC2)CCN(C(C)=O)CC1` [Example 122, (R)-1-Acetyl-4-(cyclopropylmethyl)-N-(2-((methylamino)methyl)benzyl)-N-(2-oxo-2-((2′-oxo-1,1′,2′,3-tetrahydrospiro[indene-2,3′-pyrrolo[2,3-b]pyridin]-5-yl)amino)ethyl)piperidine-4-carboxamide], the IC50 was 8.32 nM.
Turning to `CNCc1ccccc1CN(CC(=O)Nc1ccc2c(c1)C[C@@]1(C2)C(=O)Nc2ncccc21)C(=O)C1(C(C)C)CCN(C(C)=O)CC1` [Example 123, (R)-1-Acetyl-4-isopropyl-N-(2-((methylamino)methyl)benzyl)-N-(2-oxo-2-((2′-oxo-1,1′,2′,3-tetrahydrospiro[indene-2,3′-pyrrolo[2,3-b]pyridin]-5-yl)amino)ethyl)piperidine-4-carboxamide], the IC50 was 214 nM.
As for `CNCc1ccccc1CN(CC(=O)Nc1ccc2c(c1)C[C@@]1(C2)C(=O)Nc2ncccc21)C(=O)C1(CC(C)C)CCN(C(C)=O)CC1` [Example 125], the IC50 was 21.4 nM.
For `CNCc1ccccc1CN(CC(=O)Nc1ccc2c(c1)C[C@@]1(C2)C(=O)Nc2ncccc21)C(=O)C1(COC)CCN(C(C)=O)CC1` [Example 126, (R)-1-Acetyl-4-(methoxymethyl)-N-(2-((methylamino)methyl)benzyl)-N-(2-oxo-2-((2′-oxo-1,1′,2′,3-tetrahydrospiro[indene-2,3′-pyrrolo[2,3-b]pyridin]-5-yl)amino)ethyl)piperidine-4-carboxamide], the IC50 is 174 nM.
For the compound `CNCc1ccccc1CN(CC(=O)Nc1ccc2c(c1)C[C@@]1(C2)C(=O)Nc2ncccc21)C(=O)C1(OC)CCN(C(C)=O)CC1` [Example 127, 1-Acetyl-4-methoxy-N-[[2-(methylaminomethyl)phenyl]methyl]-N-[2-oxo-2-[[(3R)-2-oxospiro[1H-pyrrolo[2,3-b]pyridine-3,2′-indane]-5′-yl]amino]ethyl]piperidine-4-carboxamide], the IC50 was 24.5 nM.
The value for `CNCc1ccccc1CN(CC(=O)Nc1cc2c(cc1C)CC1(C2)C(=O)Nc2ncccc21)C(=O)C1(C)CCNCC1` (stereo not drawn) [Example 128, 4-Methyl-N-(2-((5-methyl-2′-oxo-1,1′,2′,3-tetrahydrospiro[indene-2,3′-pyrrolo[2,3-b]pyridin]-6-yl)amino)-2-oxoethyl)-N-(2-((methylamino)methyl)benzyl)piperidine-4-carboxamide] was 87.1 nM; that for `CNCc1ccccc1CN(CC(=O)Nc1cc2c(cc1C)CC1(C2)C(=O)Nc2ncccc21)C(=O)C1(C)CCN(C(C)=O)CC1` (stereo not drawn) [Example 129, Acetyl-4-methyl-N-(2-((5-methyl-2′-oxo-1,1′,2′,3-tetrahydrospiro[indene-2,3′-pyrrolo[2,3-b]pyridin]-6-yl)amino)-2-oxoethyl)-N-(2-((methylamino)methyl)benzyl)piperidine-4-carboxamide] was 107 nM; that for `CC(=O)N1CCC(C)(C(=O)N(CC(=O)Nc2cc3c(cc2C)CC2(C3)C(=O)Nc3ncccc32)Cc2ccccc2CN)CC1` (stereo not drawn) [Example 130, 1-Acetyl-N-(2-(aminomethyl)benzyl)-4-methyl-N-(2-((5-methyl-2′-oxo-1,1′,2′,3-tetrahydrospiro[indene-2,3′-pyrrolo[2,3-b]pyridin]-6-yl)amino)-2-oxoethyl)piperidine-4-carboxamide] was 69.2 nM.
The value for `CC1(C(=O)N(CC(=O)Nc2ccc3c(c2)C[C@@]2(C3)C(=O)Nc3ncccc32)Cc2ccccc2CN)CCNCC1` [Example 131, (R)—N-(2-(Aminomethyl)benzyl)-4-methyl-N-(2-oxo-2-((2′-oxo-1,1′,2′,3-tetrahydrospiro[indene-2,3′-pyrrolo[2,3-b]pyridin]-5-yl)amino)ethyl)piperidine-4-carboxamide] was 302 nM.
Turning to `CC(=O)N1CCC(C)(C(=O)N(CC(=O)Nc2ccc3c(c2)C[C@@]2(C3)C(=O)Nc3ncccc32)Cc2ccccc2CN)CC1` [Example 132, (R)-1-Acetyl-N-(2-(aminomethyl)benzyl)-4-methyl-N-(2-oxo-2-((2′-oxo-1,1′,2′,3-tetrahydrospiro[indene-2,3′-pyrrolo[2,3-b]pyridin]-5-yl)amino)ethyl)piperidine-4-carboxamide], the IC50 was 148 nM.
With `CCC1(C(=O)N(CC(=O)Nc2ccc3c(c2)C[C@@]2(C3)C(=O)Nc3ncccc32)Cc2ccccc2CN)CCN(C(C)=O)CC1` [Example 133, (R)-1-Acetyl-N-(2-(aminomethyl)benzyl)-4-ethyl-N-(2-oxo-2-((2′-oxo-1,1′,2′,3-tetrahydrospiro[indene-2,3′-pyrrolo[2,3-b]pyridin]-5-yl)amino)ethyl)piperidine-4-carboxamide] the figure was 6.92 nM.
The value for `CCNCc1ccccc1CN(CC(=O)Nc1ccc2c(c1)C[C@@]1(C2)C(=O)Nc2ncccc21)C(=O)C1(CC)CCN(C(C)=O)CC1` [Example 134, (R)-1-Acetyl-4-ethyl-N-(2-((ethylamino)methyl)benzyl)-N-(2-oxo-2-((2′-oxo-1,1′,2′,3-tetrahydrospiro[indene-2,3′-pyrrolo[2,3-b]pyridin]-5-yl)amino)ethyl)piperidine-4-carboxamide] was 115 nM.
